Numbering of substitutions follows the chain as printed.
Tests used:
[1] = biological target: T1, E2C hDAT (C90A/C306A hDAT) (Homo sapiens, UniProt Q01959, C306A/C90A); assay: MTSET assay, [3H]DA uptake in HEK293 cells; type: cell-based
T1 construct: expressed in transfected cells; host or cells: HEK293 cells, transient, pcDNA3.1+
T1 sequence (Q01959 1-620 C90A/C306A): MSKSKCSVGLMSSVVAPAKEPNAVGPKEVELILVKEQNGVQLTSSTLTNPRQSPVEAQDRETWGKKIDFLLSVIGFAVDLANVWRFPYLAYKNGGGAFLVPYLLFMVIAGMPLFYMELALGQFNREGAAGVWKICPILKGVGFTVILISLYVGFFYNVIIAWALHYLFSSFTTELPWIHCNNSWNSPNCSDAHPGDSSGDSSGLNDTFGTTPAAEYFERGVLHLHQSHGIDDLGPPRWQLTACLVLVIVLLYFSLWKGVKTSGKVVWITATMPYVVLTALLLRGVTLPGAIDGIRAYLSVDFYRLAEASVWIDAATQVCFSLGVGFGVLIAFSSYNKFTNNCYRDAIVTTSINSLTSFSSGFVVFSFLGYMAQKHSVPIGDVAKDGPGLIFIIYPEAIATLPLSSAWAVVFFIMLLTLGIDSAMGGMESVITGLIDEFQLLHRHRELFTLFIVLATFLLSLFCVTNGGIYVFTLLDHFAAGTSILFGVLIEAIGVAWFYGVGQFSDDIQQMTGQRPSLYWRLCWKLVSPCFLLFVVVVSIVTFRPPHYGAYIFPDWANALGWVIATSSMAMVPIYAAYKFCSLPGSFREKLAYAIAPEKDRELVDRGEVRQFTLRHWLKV
Text: (§1) All mutants on hDAT were generated based on the predictions made using our computational model, as described previously using site-directed mutagenesis based on the wild-type hDAT (WT hDAT) sequence (NCBI, cDNA clone MGC: 164,608 IMAGE: 40,146,999) (Quizon et al. [2016]). The combination of hDAT mutations on Asp206 and His547 (Aspartic acid 206 to leucine and histidine 547 to alanine, D206L/H547A) were predicted to eliminate two hydrogen bonds between Tat and hDAT. In addition, the combination of mutations on Tyr88, Asp206, and His547 (tyrosine88 to phenylalanine and aspartic acid 206 to leucine and histidine 547 to alanine, Y88F/D206L/H547A) were predicted to eliminate three hydrogen bonds from the Tat-hDAT complex. Two extracellular cysteine90 and cysteine306 residues on WT hDAT were mutated to alanine as E2C hDAT (C90A/C306A hDAT), rendering the E2C hDAT MTSET-insensitive background (Pedersen et al. [2014]). A triple mutation of the two cysteine90 and 306 residues to alanine and […] to cysteine on WT hDAT was generated as E2C-I159C hDAT (C90A/C306A/I159C) for MTSET-sensitive construct. A combination of C90A/C306A/H547A was generated as E2C/H547A hDAT for MTSET-insensitive control for H547A. To determine whether H547A-enhanced DA transport is mediated by changing transporter conformation, two combinations of C90A/C306A/I159C/H547A and C90A/C306A/I159A/H547A were generated as E2C-I159C/H547A and E2C-I159A/H547A for positive and negative controls for MTSET sensitive background, respectively. Synthetic cDNA encoding hDAT subcloned into pcDNA3.1+ (provided by Dr. Haley E Melikian, University of Massachusetts) was used as a template to generate mutants using site-directed mutagenesis performed by GENEWIZ (South Plainfield, NJ). DNA sequencing was also performed by GENEWIZ to confirm the sequences of the mutant constructs. Plasmid DNA were propagated and purified using the Qiagen Hi-speed maxi prep plasmid DNA isolation kit (Qiagen, Valencia, CA, USA).
(§2) This assay was performed based on the previous report with minor modifications (Loland et al. [2004], [2008]). First, we generated five WT hDAT based plasmid construct for MTSET-insensitive or sensitive background as we described above. HEK293 cells were grown in poly-d-lysine coated plates at a density of 1 × 10^5 cells/cm^2 were transfected with different E2C- associated hDAT background constructs: E2C hDAT, E2C-I159C hDAT, E2C/H547A hDAT, E2C-I159C/H547A or E2C-I159A/H547A. Twenty-four hours after the transfection, cells were washed twice with 1× KRH buffer, and preincubated with or without the presence of 10 µM nomifensine (for non-specific uptake) and MTSET for 10 min at room temperature. MTSET at 1 mM final concentration was chosen based on a pilot study on optimizing MTSET concentrations (0.1, 0.5 or 1.0 mM). […] Because MTSET is easily hydrolyzed in solution, the amount needed for a 10 × stock was weighed out and dissolved in 1 × KRH buffer just right before adding to the assigned wells, for a 10-fold dilution (final concentration of 1 mM in final volume of 250 µl). […] Cells were immediately washed twice with ice-cold 1 × KRH buffer to terminate the reaction and were lysed rapidly with the addition of 1 % SDS. Cell lysates were collected after incubation for 1 h at room temperature and radioactivity was determined the next day.

[2] = biological target: T2, E2C/H547A hDAT (C90A/C306A/H547A) (Homo sapiens, UniProt Q01959, C306A/C90A/H547A); assay: MTSET assay, [3H]DA uptake in HEK293 cells; type: cell-based; details: 1 mM MTSET, HEK293, Fig. 8b
T2 construct: expressed in transfected cells; host or cells: HEK293 cells, transient, pcDNA3.1+
T2 sequence (Q01959 1-620 C90A/C306A/H547A): T1 sequence (Q01959 1-620 C90A/C306A) with H547A
Text: as §1, §2

[3] = E2C, 1 mM MTSET, HEK293, Fig. 8b

## C[N+](C)(C)CCSS(C)(=O)=O [MTSET, [2-(trimethylammonium)ethyl]-methanethiosulfonate]
[1]; [3]
  [3H]DA uptake in the presence of MTSET: 86.5 ± 6.0
  effect of MTSET on DA uptake: no effect
[1]; E2C-hDAT, MTSET 0.1, 0.5, 1.0 mM, pilot study Fig. 8a
  effect on [3H]DA uptake: no effect
[2]
  effect of MTSET on DA uptake: no effect

Reference: publication PMC8329121 (Journal of Neuroimmune Pharmacology, 2021)
